Paper PMC11149917, “Translational and Therapeutic Evaluation of RAS-GTP Inhibition by RMC-6236 in RAS-Driven Cancers” (Cancer Discovery, 2024)
Where two headings read alike, the source gives them in different places.

Assay: Mouse blood and tissue PK (LC/MS-MS)
Format: in vivo
Conditions: mouse; for concentration at 2 h / concentration at 24 h / concentration at 4 h / concentration at 8 h / concentration at 48 h / Kp: oral; for concentration at 2 h / concentration at 24 h / concentration at 4 h / concentration at 8 h / concentration at 48 h: read-out: RMC-6236 (nM) Tumor; for Kp: tumor relative to whole blood, read-out: Tumor/Blood AUC Ratio; for AUC(0-t): read-out: Blood AUClast
Method: For single-dose PKPD study, mice were randomized and assigned into groups (n = 3/dose/time point). […] Blood and tissues, including the tumor, brain, colon, ear skin, and muscle, were harvested at indicated time points. […] The whole blood, tumor, brain, colon, and ear skin concentrations of RMC-6236 were determined using liquid chromatography–tandem mass spectrometry (LC/MS-MS) methods. […] After thorough mixing and centrifugation, the supernatant was diluted with water or directly analyzed on a Sciex 5500 or Sciex 6500+ triple quadrupole mass spectrometer equipped with an ACQUITY or Shimadzu UPLC system. […] Bioanalysis on blood and tissue samples from xenograft models was run at Pharmaron and Wuxi AppTec. Concentrations reported as below the quantification limit were treated as zero for PK analysis. PK parameters were calculated by noncompartmental analysis of the concentration–time profiles using Phoenix WinNonLin (version 8.3 Certara). Apparent terminal elimination half-life (t1/2) values were calculated as ln(2)/k, where k represents the terminal elimination rate constant. Area under the concentration–time curve (AUC) values were estimated using a linear trapezoidal method. AUClast values were calculated from the dosing time to the last quantifiable concentration. Maximum concentration (Cmax) was recorded as observed.

[1] = BALB/c nude, ear skin, 3 mg/kg, sheet Ear Skin, model Capan-2, study Capan-2 #3_PHA 2023, 3 mg/kg
[2] = BALB/c nude, ear skin, 10 mg/kg, sheet Ear Skin, model Capan-2, study Capan-2 #3_PHA 2023, 10 mg/kg
[3] = BALB/c nude, ear skin, 25 mg/kg, sheet Ear Skin, model Capan-2, study Capan-2 #3_PHA 2023, 25 mg/kg
[4] = BALB/c nude, ear skin, 50 mg/kg, sheet Ear Skin, model Capan-2, study Capan-2 #3_PHA 2023, 50 mg/kg
[5] = BALB/c nude, ear skin, 100 mg/kg, sheet Ear Skin, model Capan-2, study Capan-2 #3_PHA 2023, 100 mg/kg
[6] = BALB/c nude, tumor, 0.3 mg/kg, Capan-2, study Capan-2 #3_PHA 2020, 0.3 mg/kg
[7] = BALB/c nude, tumor, 3 mg/kg, Capan-2, study Capan-2 #3_PHA 2020, 3 mg/kg
[8] = BALB/c nude, tumor, 3 mg/kg, Capan-2, study Capan-2 #3_PHA 2023, 3 mg/kg
[9] = BALB/c nude, tumor, 10 mg/kg, Capan-2, study Capan-2 #3_PHA 2020, 10 mg/kg
[10] = BALB/c nude, tumor, 10 mg/kg, Capan-2, study Capan-2 #3_PHA 2023, 10 mg/kg
[11] = BALB/c nude, tumor, 10 mg/kg, sheet colon, Capan-2, Capan-2 #3_PHA 2023, 10 mg/kg
[12] = BALB/c nude, tumor, 25 mg/kg, Capan-2, study Capan-2 #3_PHA 2020, 25 mg/kg
[13] = BALB/c nude, tumor, 25 mg/kg, Capan-2, study Capan-2 #3_PHA 2023, 25 mg/kg
[14] = BALB/c nude, tumor, 25 mg/kg, sheet colon, Capan-2, Capan-2 #3_PHA 2023, 25 mg/kg
[15] = BALB/c nude, tumor, 40 mg/kg, Capan-2, study Capan-2 #3_PHA 2020, 40 mg/kg
[16] = BALB/c nude, tumor, 50 mg/kg, Capan-2, study Capan-2 #3_PHA 2023, 50 mg/kg
[17] = BALB/c nude, tumor, 50 mg/kg, sheet colon, Capan-2, Capan-2 #3_PHA 2023, 50 mg/kg
[18] = BALB/c nude, tumor, 100 mg/kg, Capan-2, study Capan-2 #3_PHA 2023, 100 mg/kg
[19] = BALB/c nude, tumor, 100 mg/kg, sheet colon, Capan-2, Capan-2 #3_PHA 2023, 100 mg/kg
[20] = BALB/c nude, whole blood, po, 3 mg/kg, Capan-2 (3 mg/kg), single dose
[21] = BALB/c nude, whole blood, po, 10 mg/kg, Capan-2 (10 mg/kg), single dose
[22] = BALB/c nude, whole blood, po, 25 mg/kg, Capan-2 (25 mg/kg), single dose
[23] = Balb/c nude, whole blood, po, 25 mg/kg, LU99-luc IC #2 (25 mg/kg), single dose

CCn1c(-c2cc(N3CCN(C)CC3)cnc2[C@H](C)OC)c2c3cc(ccc31)-c1csc(n1)C[C@H](NC(=O)[C@H]1C[C@@H]1C)C(=O)N1CCC[C@H](N1)C(=O)OCC(C)(C)C2 [RMC-6236]
concentration at 2 h (BALB/c nude, colon, 3 mg/kg, sheet colon, Capan-2, Capan-2 #3_PHA 2023, 3 mg/kg): 1370 nM | concentration at 2 h (BALB/c nude, colon, 25 mg/kg, sheet colon, Capan-2, Capan-2 #3_PHA 2023, 25 mg/kg): 5810 nM | concentration at 24 h (BALB/c nude, colon, 50 mg/kg, sheet colon, Capan-2, Capan-2 #3_PHA 2023, 50 mg/kg): 147 nM | concentration at 24 h (BALB/c nude, colon, 100 mg/kg, sheet colon, Capan-2, Capan-2 #3_PHA 2023, 100 mg/kg): 531 nM | concentration at 2 h [1]: 175 nM | concentration at 4 h [1]: 255 nM | concentration at 8 h [1]: 195 nM | concentration at 24 h [1]: 48.3 nM | concentration at 2 h [2]: 469 nM | concentration at 4 h [2]: 883 nM | concentration at 8 h [2]: 1080 nM | concentration at 24 h [2]: 219 nM | concentration at 48 h [2]: 41.6 nM | concentration at 2 h [3]: 1640 nM | concentration at 4 h [3]: 2370 nM | concentration at 8 h [3]: 1360 nM | concentration at 24 h [3]: 512 nM | concentration at 48 h [3]: 147 nM | concentration at 2 h [4]: 5540 nM | concentration at 4 h [4]: 7670 nM | concentration at 8 h [4]: 4410 nM | concentration at 24 h [4]: 1110 nM | concentration at 48 h [4]: 276 nM | concentration at 2 h [5]: 12300 nM | concentration at 8 h [5]: 6560 nM | concentration at 24 h [5]: 2500 nM | Kp (BALB/c nude, 3 mg/kg, Capan-2 (3 mg/kg), single dose): 3.3 | Kp (BALB/c nude, 10 mg/kg, Capan-2 (10 mg/kg), single dose): 4.6 | Kp (BALB/c nude, 25 mg/kg, Capan-2 (25 mg/kg), single dose): 5.8 | concentration at 2 h [6]: 15.2 nM | concentration at 8 h [6]: 14.8 nM | concentration at 24 h [6]: 5.5 nM | concentration at 2 h [7]: 314 nM | concentration at 8 h [7]: 136 nM | concentration at 24 h [7]: 67 nM | concentration at 48 h [7]: 22 nM | concentration at 2 h [8]: 148 nM | concentration at 4 h [8]: 290 nM | concentration at 8 h [8]: 231 nM | concentration at 24 h [8]: 109 nM | concentration at 48 h [8]: 48.6 nM | concentration at 8 h (BALB/c nude, tumor, 3 mg/kg, sheet colon, Capan-2, Capan-2 #3_PHA 2023, 3 mg/kg): 567 nM | concentration at 2 h [9]: 671 nM | concentration at 8 h [9]: 829 nM | concentration at 24 h [9]: 406 nM | concentration at 48 h [9]: 101 nM | concentration at 2 h [10]: 630 nM | concentration at 4 h [10]: 1230 nM | concentration at 8 h [10]: 1120 nM | concentration at 24 h [10]: 563 nM | concentration at 48 h [10]: 142 nM | concentration at 4 h [11]: 3110 nM | concentration at 8 h [11]: 1860 nM | concentration at 24 h [11]: 40.6 nM | concentration at 2 h [12]: 2200 nM | concentration at 8 h [12]: 2400 nM | concentration at 24 h [12]: 1250 nM | concentration at 2 h [13]: 2210 nM | concentration at 4 h [13]: 3050 nM | concentration at 8 h [13]: 2290 nM | concentration at 24 h [13]: 1130 nM | concentration at 4 h [14]: 6440 nM | concentration at 8 h [14]: 3260 nM | concentration at 2 h [15]: 3660 nM | concentration at 8 h [15]: 3360 nM | concentration at 24 h [15]: 1740 nM | concentration at 2 h [16]: 4650 nM | concentration at 4 h [16]: 5600 nM | concentration at 8 h [16]: 5310 nM | concentration at 24 h [16]: 2520 nM | concentration at 2 h [17]: 21800 nM | concentration at 4 h [17]: 10600 nM | concentration at 2 h [18]: 10400 nM | concentration at 4 h [18]: 17300 nM | concentration at 8 h [18]: 7500 nM | concentration at 24 h [18]: 4270 nM | concentration at 48 h [18]: 1150 nM | concentration at 2 h [19]: 25300 nM | concentration at 4 h [19]: 30100 nM | half-life (BALB/c nude, tumor, po, 3 mg/kg, Capan-2 (3 mg/kg), single dose, read-out: Tumor t1/2 (converted)): 16.6 h | half-life (BALB/c nude, tumor, po, 10 mg/kg, Capan-2 (10 mg/kg), single dose, read-out: Tumor t1/2 (converted)): 15.7 h | half-life (BALB/c nude, tumor, po, 25 mg/kg, Capan-2 (25 mg/kg), single dose, read-out: Tumor t1/2 (converted)): 14 h | Cmax [20]: 252 ng/mL | AUC(0-t) [20]: 1560 ng·h/mL | Cmax [21]: 950 ng/mL | AUC(0-t) [21]: 5090 ng·h/mL | half-life (BALB/c nude, whole blood, po, 10 mg/kg, Capan-2 (10 mg/kg), single dose, read-out: Blood t1/2 (converted)): 3.77 h | Cmax [22]: 2920 ng/mL | AUC(0-t) [22]: 11600 ng·h/mL | half-life (BALB/c nude, whole blood, po, 25 mg/kg, Capan-2 (25 mg/kg), single dose, read-out: Blood t1/2 (converted)): 2.77 h | half-life (Balb/c nude, tumor (intracranial), po, 25 mg/kg, LU99-luc IC (25 mg/kg), intracranial tumor, read-out: Tumor t1/2 (converted)): 16.1 h | half-life (Balb/c nude, tumor (subcutaneous xenograft), sc, 25 mg/kg, LU99-luc SC (25 mg/kg), subcutaneous xenograft tumor, read-out: Tumor t1/2 (converted)): 25.3 h | Cmax [23]: 2020 ng/mL | AUC(0-t) [23]: 14000 ng·h/mL | Cmax (Balb/c nude, whole blood, po, 25 mg/kg, LU99-luc IC (25 mg/kg), single dose): 2500 ng/mL
